According to US6589976B1, “Utilizing spirocyclic phenyl keto-enols as pesticides and herbicides” (Bayer Aktiengesellschaft, priority 1997, dated 2003):

Experiments:
[1] = tested on: greenhouse spider mite (Tetranychus urticae); experiment: Tetranychus-Test (OP-resistant/dipped Treatment); assay type: in vivo; settings: active compound concentration of 0.01%, after 7 days
Experimental: Tetranychus-Test (OP-resistant/dipped Treatment)
(§1) Solvent: 3 parts by weight of dimethylformamide
(§2) Emulsifier: 1 part by weight of alkylaryl polyglycol ether
(§3) To produce a suitable preparation of active compound, 1 part by weight of active compound is mixed with the stated amount of solvent and the stated amount of emulsifier, and the concentrate is diluted with water to the desired concentration.
Bean plants (Phaseolus vulgaris), which are heavily infested by all stages of the greenhouse spider mite (Tetranychus urticae) are dipped into a preparation of active compound of the desired concentration.
After the desired period of time, the activity in % is determined. 100% means that all spider mites have been killed, 0% means that none of the spider mites have been killed.

[2] = tested on: larvae of the green rice leaf hoppers (Nepliotettix cincticeps); experiment: Nephotettix-Test (rice seedlings dipped); assay type: in vivo, Nephotettix cincticeps; settings: active compound concentration of 0.1%, after 6 days
Experimental: Solvent: 7 parts by weight dimethylformamide
as §2, §3
Rice seedlings (Oryza sativa) are treated by being dipped into the preparation of active compound of the desired concentration and populated with larvae of the green rice leaf hoppers (Nepliotettix cincticeps) while the seedlings are still moist.
After the desired period of time, the kill in % is determined. 100% means that all leaf hoppers have been killed, 0% means that none of the leaf hoppers have been killed.

[3] = tested on: larvae of the mustard beetle (Phaedon cochleariae); experiment: Phaedon-Larvae-Test (cabbage leaves dipped); assay type: in vivo; settings: active compound concentration of 0.1%, after 7 days
Experimental: (§4) Solvent: 7 parts by weight of dimethylformamide
as §2, §3
After the desired period of time, the kill in % was determined. 100% means that all beetle larvae have been killed, 0% means that none of the beetle larvae have been killed.

[4] = tested on: peach affids (Myzus persicae); experiment: Myzus-Test (cabbage leaves dipped); assay type: in vivo; settings: active compound concentration of 0.1%, after 6 days
Experimental: as §4, §2, §3
Cabbage leaves (Brassica oleracea), which are heavily infested by peach affids (Myzus persicae) are treated by being dipped into the preparation of active compound of the desired concentration.
After the desired period of time, the kill in per cent is determined. 100% means that all affids have been killed; 0% means that none of the affids have been killed.

[5] = tested on: caterpillars of the owlet moth (Spodoptera frugiperda); experiment: Spodoptera Frugiperda-Test (cabbage leaves dipped); assay type: in vivo; settings: active compound concentration of 0.1%, after 7 days
Experimental: Spodoptera Frugiperda-Test
as §4, §2, §3
Cabbage leaves (Brassica oleracea) are treated by being dipped into the preparation of active compound of the desired concentration and populated with caterpillars of the owlet moth (Spodoptera frugiperda) while the leaves are still moist.
After the desired period of time, the kill in % is determined. 100%, means that all caterpillars have been killed; 0% means that none of the caterpillars have been killed.

Lucilia cuprina-Larvae = experiment: Blowfly-Larvae-Test/Development-inhibitory Action; assay type: in vivo; settings: active compound concentration of 1000 ppm, read-out: activity (inhibition of fly emergence)
Experimental: Blowfly-Larvae-Test/Development-inhibitory Action
Test animals: Lucilia cuprina-Larvae
Solvent: dimethyl sulphoxide
20 mg of active compound are dissolved in 1 ml of dimethyl sulphoxide, more dilute concentrations are prepared by dilution with distilled H2O.
Approximately 20 Lucilia cuprina larvae are introduced into a test tube which contains approximately 1 cm^3 of horse meat and 0.5 ml of the preparation of active compound to be tested. After 24 and 48 hours, the efficacy of the preparation of active compound is determined. The test tubes are transferred into beakers whose bottom is covered with sand. After a further 2 days, the test tubes are removed, and the pupae are counted.
The activity of the preparation of active compound is assessed by the number of flies which have emerged after 1.5 times the development time of an untreated control. 100% means that no flies have emerged; 0% means that all the flies have emerged normally.

[6] = tested on: fruit tree red spider mite (Panonychus ulmi); experiment: Panonychus-Test (plum trees sprayed); assay type: in vivo; settings: active compound concentration of 0.02%, after 7 days
Experimental: as §1, §2
To produce a suitable preparation of active compound, 1 part by weight of active compound is mixed with the stated amount of solvent and the stated amount of emulsifier, and the concentrate is diluted with emulsifier-containing water to the desired concentration.
Plum trees (Prunus domestica), of a height of approximately 30 cm which are heavily infested by all development stages of the fruit tree red spider mite (Panonychus ulmi) are sprayed with a preparation of active compound of the desired concentration.
After the desired period of time, the effect in % is determined. 100% means that all spider mites have been killed, 0% means that none of the spider mites have been killed.

CON=C1CCC2(CC1)OC(=O)C(c1c(C)cc(C)cc1C)=C2O (centres unmarked) [Example I-2-a-2]
100%: kill [1] | kill [2]

CON=C1CCC2(CC1)OC(=O)C(c1c(C)cc(C)cc1C)=C2OC(=O)C(C)(C)C (centres unmarked) [Example I-2-b-2]
100%: kill [3] | kill [4] | kill [5] | kill [1] | inhibition at 1000 ppm (Lucilia cuprina-Larvae) | effect (spider mites killed) [6]
